Measurements: patent US20240124487A1, “BRANCHED MACROCYCLIC 4-(PYRAZOL-5-YL)-INDOLE DERIVATIVES AS INHIBITORS OF MCL-1” (JANSSEN PHARMACEUTICA NV, priority 2020, published 2024)

Experiments:
[1] = biological target: Myeloid Cell Leukemia 1 (Mcl-1) (Homo sapiens (Human), UniProt Q07820); test: Terbium labeled Mcl-1 HTRF binding assay (displacement of Cy5-labeled BIM BH3 peptide); settings: 25 pM Tb-Mcl-1, 8 nM Cy5 Bim peptide, Ki=IC50/(1+[L]/Kd), [L]=8 nM, Kd=10 nM, read-out: TB-MCL1 Ki
Description: Terbium labeled Myeloid Cell Leukemia 1 (Mcl-1) homogeneous time-resolved fluorescence (HTRF) binding assay utilizing the BIM BH3 peptide (H2N-(C/Cy5Mal) WIAQELRRIGDEFN-OH) as the binding partner for Mcl-1.
This assay evaluated inhibition of the BH3 domain: Mcl-1 interaction by measuring the displacement of Cy5-labeled BIM BH3 peptide (H2N—(C/Cy5Mal) WIAQELRRIGDEFN-OH) in the HTRF assay format.
The following assay and stock buffers were prepared for use in the assay: (a) Stock buffer: 10 mM Tris-HCl, pH=7.5+150 mM NaCl, filtered, sterilized, and stored at 4° C.; and (b) 1× assay buffer, where the following ingredients were added fresh to stock buffer: 2 mM dithiothreitol (DTT), 0.0025% Tween-20, 0.1 mg/mL bovine serum albumin (BSA). The 1×Tb-Mcl-1+Cy5 Bim peptide solution was prepared by diluting the protein stock solution using the 1× assay buffer (b) to 25 pM Tb-Mcl-1 and 8 nM Cy5 Bim peptide.
Using the Acoustic ECHO, 100 nL of 100× test compound(s) were dispensed into individual wells of a white 384-well Perkin Elmer Proxiplate, for a final compound concentration of 1× and final DMSO concentration of 1%. Inhibitor control and neutral control (NC, 100 nL of 100% DMSO) were stamped into columns 23 and 24 of assay plate, respectively. Into each well of the plate was then dispensed 10 μL of the 1×Tb-Mcl-1+Cy5 Bim peptide solution. The plate was centrifuged with a cover plate at 1000 rpm for 1 minute, then incubated for 60 minutes at room temperature with plates covered. The TR-FRET signal was read on an BMG PHERAStar FSX MicroPlate Reader at room temperature using the HTRF optic module (HTRF: excitation: 337 nm, light source: laser, emission A: 665 nm, emission B: 620 nm, integration start: 60 μs, integration time: 400 pts).
The BMG PHERAStar FSX MicroPlate Reader was used to measure fluorescence intensity at two emission wavelengths—665 nm and 620 nm—and report relative fluorescence units (RFU) for both emissions, as well as a ratio of the emissions (665 nm/620 nm)*10,000. The RFU values were normalized to percent inhibition as follows:
% inhibition=(((NC−IC)−(compound−IC))/(NC−IC))*100
where IC (inhibitor control, low signal)=mean signal of 1×Tb-MC1-1+Cy5 Bim peptide+inhibitor control or 100% inhibition of Mcl-1; NC (neutral control, high signal)=mean signal 1×Tb-MC1-1+Cy5 Bim peptide with DMSO only or 0% inhibition
An 11-point dose response curve was generated to determine IC50 values (using GenData) based on the following equation:
Y=Bottom+(Top−Bottom)/(1+10^((log IC50−X)*HillSlope))
where Y=% inhibition in the presence of X inhibitor concentration; Top=100% inhibition derived from the IC (mean signal of Mcl-1+inhibitor control); Bottom=0% inhibition derived from the NC (mean signal of Mcl-1+DMSO); Hillslope=Hill coefficient; and IC50=concentration of compound with 50% inhibition in relation to top/neutral control (NC).
In this assay [L]=8 nM and Kd=10 nM
Representative compounds of the present invention were tested according to the procedure as described above, with results as listed in the Table below (n.d. means not determined).

[2] = system: MOLP-8 human multiple myeloma cell line; test: MOLP8 Caspase-Glo 3/7 apoptosis induction assay; format: cell-based; settings: MOLP-8 cells, 2 hours incubation at 37° C., averaged values over all runs on all batches
Text: MCL-1 is a regulator of apoptosis and is highly over-expressed in tumor cells that escape cell death. The assay evaluates the cellular potency of small-molecule compounds targeting regulators of the apoptosis pathway, primarily MCL-1, Bfl-1, Bcl-2, and other proteins of the Bcl-2 family. Protein-protein inhibitors disrupting the interaction of anti-apoptotic regulators with BH3-domain proteins initiate apoptosis.
The Caspase-Glo® 3/7 Assay is a luminescent assay that measures caspase-3 and -7 activities in purified enzyme preparations or cultures of adherent or suspension cells. The assay provides a proluminescent caspase-3/7 substrate, which contains the tetrapeptide sequence DEVD. This substrate is cleaved to release aminoluciferin, a substrate of luciferase used in the production of light. Addition of the single Caspase-Glo® 3/7 Reagent in an “add-mix-measure” format results in cell lysis, followed by caspase cleavage of the substrate and generation of a “glow-type” luminescent signal.
This assay uses the MOLP-8 human multiple myeloma cell line, which is sensitive to MCL-1 inhibition.
Materials: • Perkin Elmer Envision • Multidrop 384 and small volume dispensing cassettes • Centrifuge • Countess automated cell counter • Countess counting chamber slides • Assay plate: ProxiPlate-384 Plus, White 384-shallow well Microplate • Sealing tape: Topseal A plus • T175 culture flask
Cell cultures were maintained between 0.2 and 2.0×10^6 cells/mL. The cells were harvested by collection in 50 mL conical tubes. The cells were then pelleted at 500 g for 5 mins before removing supernatant and resuspension in fresh pre-warmed culture medium. The cells were counted and diluted as needed.
The assay reagent was prepared by transferring the buffer solution to the substrate vial and mixing. The solution may be stored for up to 1 week at 4° C. with negligible loss of signal.
Compounds were delivered in assay-ready plates (Proxiplate) and stored at −20° C.
Assays always include 1 reference compound plate containing reference compounds. The plates were spotted with 40 nL of compounds (0.5% DMSO final in cells; serial dilution; 30 μM highest conc. 1/3 dilution, 10 doses, duplicates). The compounds were used at room temperature and 4 μL of pre-warmed media was added to all wells except column 2 and 23. The negative control was prepared by adding 1% DMSO in media. The positive control was prepared by adding the appropriate positive control compound in final concentration of 60 μM in media. The plate was prepared by adding 4 μL negative control to column 23, 4 μL positive control to column 2 and 4 μL cell suspension to all wells in the plate. The plate with cells was then incubated at 37° C. for 2 hours. The assay signal reagent is the Caspase-Glo solution described above, and 8 μL was added to all wells. The plates were then sealed and measured after 30 minutes.
The activity of a test compound was calculated as percent change in apoptosis induction as follows: • LC=median of the Low Control values • =Central Reference in Screener • =DMSO • =0% • HC=Median of the High Control values • =Scale Reference in Screener • =30 μM of positive control • =100% apoptosis induction
% Effect (AC50)=100−((sample−LC)/(HC−LC))*100
% Control=(sample/HC)*100
% Control min=((sample−LC)/(HC−LC))*100

Chain of Myeloid Cell Leukemia 1 (Mcl-1) (Q07820 whole entry): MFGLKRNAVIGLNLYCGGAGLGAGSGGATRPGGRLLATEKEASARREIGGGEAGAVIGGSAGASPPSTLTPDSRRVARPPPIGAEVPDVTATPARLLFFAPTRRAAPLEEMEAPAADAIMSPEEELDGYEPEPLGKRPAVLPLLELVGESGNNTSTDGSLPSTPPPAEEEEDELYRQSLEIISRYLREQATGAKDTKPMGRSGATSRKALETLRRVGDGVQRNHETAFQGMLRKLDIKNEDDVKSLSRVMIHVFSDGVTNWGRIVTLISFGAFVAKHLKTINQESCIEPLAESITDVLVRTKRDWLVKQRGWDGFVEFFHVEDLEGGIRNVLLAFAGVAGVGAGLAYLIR

Row | Structure (SMILES) | Ki [1] [nM] | AC50 [2] [nM] | AC50 ([2]; Homo sapiens, MOLP-8, 2 h) [nM]
1 | COc1ccc(COC2CCc3cc(n(C)n3)CCc3cc(c4ccc(F)cc4c3)OCCCn3c(C(=O)O)c(C)c4c(c(Cl)ccc43)-c3c2nn(C)c3C)cc1 (single isomer, unassigned) [Compound 22] | 0.357 | 1000 | 
2 | COCCn1nc2cc1CCc1cc(c3ccc(F)cc3c1)OCCCn1c(C(=O)O)c(C)c3c(c(Cl)ccc31)-c1c(C)nn3c1C(CC2)OCC3 (centres unmarked) [Compound 31] |  |  | 48.6
3 | COCCCC1OCc2cc(n(C)n2)CCc2cc(c3ccc(F)cc3c2)OCCCn2c(C(=O)O)c(C)c3c(c(Cl)ccc32)-c2c1nn(C)c2C (single isomer, unassigned) [Compound 24] | 8.42 | > 25 | 
4 | Cc1c(C(=O)O)n2c3ccc(Cl)c(c13)-c1c(nn(C)c1C)C(CN1CCOCC1)OCc1cc(n(C)n1)CCc1cc(c3ccc(F)cc3c1)OCCC2 (single isomer, unassigned) [Compound 13] | 0.058 |  | 1370
5 | COCCOCCn1nc(C)c2c1C(C)OCc1cc(n(C)n1)CCc1cc(c3ccc(F)cc3c1)OCCCn1c(C(=O)O)c(C)c3c-2c(Cl)ccc31 (centres unmarked) [Compound 21] | 0.057 | 318 | 
6 | Cc1c(C(=O)O)n2c3ccc(Cl)c(c13)-c1c(nn(C)c1C)C(CCN1CCN(C)CC1)OCc1cc(n(C)n1)CCc1cc(c3ccc(F)cc3c1)OCCC2 (single isomer, unassigned) [Compound 8] | 0.013 |  | 1160
7 | COCCn1nc2cc1CCc1cc(c3ccc(F)cc3c1)OCCCn1c(C(=O)O)c(C)c3c(c(Cl)ccc31)-c1c(C)nn3c1C(CC2)OCC3 (centres unmarked) [Compound 34] | 0.408 | 889 | 
8 | CCOCCC1OCc2cc(n(C)n2)CCc2cc(c3ccc(F)cc3c2)OCCCn2c(C(=O)O)c(C)c3c(c(Cl)ccc32)-c2c1nn(C)c2C (single isomer, unassigned) [Compound 9] | 0.009 |  | 43.6
9 | Cc1nn2c3c1-c1c(Cl)ccc4c1c(C)c(C(=O)O)n4CCCOc1cc(cc4cc(F)ccc14)CCc1cc(nn1C)CCC3OCC2 (centres unmarked) [Compound 27] |  | 8.5 | 
10 | C=CC1OCc2cc(n(C)n2)CCc2cc(c3ccc(F)cc3c2)OCCCn2c(C(=O)O)c(C)c3c(c(Cl)ccc32)-c2c1nn(C)c2C (single isomer, unassigned) [Compound 2] | 0.024 | 19.5 | 
11 | Cc1c(C(=O)O)n2c3ccc(Cl)c(c13)-c1c(nn(C)c1C)C(CCCO)OCc1cc(n(C)n1)CCc1cc(c3ccc(F)cc3c1)OCCC2 (single isomer, unassigned) [Compound 10] | 0.028 | 1060 | 
12 | Cc1c(C(=O)O)n2c3ccc(Cl)c(c13)-c1c(nn(C)c1C)C(CC(C)O)OCc1cc(n(C)n1)CCc1cc(c3ccc(F)cc3c1)OCCC2 (single isomer, unassigned) [Compound 19] | 0.057 |  | 1210
13 | CNCCC1OCc2cc(n(C)n2)CCc2cc(c3ccc(F)cc3c2)OCCCn2c(C(=O)O)c(C)c3c(c(Cl)ccc32)-c2c1nn(C)c2C (centres unmarked) [Compound 26] | 3.61 |  | > 30
14 | C=CC1OCc2cc(n(C)n2)CCc2cc(c3ccc(F)cc3c2)OCCCn2c(C(=O)O)c(C)c3c(c(Cl)ccc32)-c2c1nn(C)c2C (single isomer, unassigned) [Compound 1] | 0.059 | 101 | 
15 | COCCOCCC1OCc2cc(n(C)n2)CCc2cc(c3ccc(F)cc3c2)OCCCn2c(C(=O)O)c(C)c3c(c(Cl)ccc32)-c2c1nn(C)c2C (single isomer, unassigned) [Compound 5] | 0.011 |  | 22.6
16 | COCCOCC1OCc2cc(n(C)n2)CCc2cc(c3ccc(F)cc3c2)OCCCn2c(C(=O)O)c(C)c3c(c(Cl)ccc32)-c2c1nn(C)c2C (single isomer, unassigned) [Compound 14] | 0.018 |  | 205
17 | Cc1c(C(=O)O)n2c3ccc(Cl)c(c13)-c1c(nn(C)c1C)C(C)OCc1cc(n(C)n1)CCc1cc(c3ccc(F)cc3c1)OCCC2 (single isomer, unassigned) [Compound 18] | 0.01 | 35.4 | 
18 | COCC1OCc2cc(n(C)n2)CCc2cc(c3ccc(F)cc3c2)OCCCn2c(C(=O)O)c(C)c3c(c(Cl)ccc32)-c2c1nn(C)c2C (single isomer, unassigned) [Compound 16] | 0.104 | 230 | 
19 | COCCC1OCc2cc(n(C)n2)CCc2cc(c3ccc(F)cc3c2)OCCCn2c(C(=O)O)c(C)c3c(c(Cl)ccc32)-c2c1nn(C)c2C (single isomer, unassigned) [Compound 3] | 0.039 | 154 | 
20 | Cc1c(C(=O)O)n2c3ccc(Cl)c(c13)-c1c(nn(C)c1C)C(CCN1CCOCC1)OCc1cc(n(C)n1)CCc1cc(c3ccc(F)cc3c1)OCCC2 (single isomer, unassigned) [Compound 7] | 0.011 |  | 149
21 | COCCC1OCc2cc(n(C)n2)CCc2cc(c3ccc(F)cc3c2)OCCCn2c(C(=O)O)c(C)c3c(c(Cl)ccc32)-c2c1nn(C)c2C (single isomer, unassigned) [Compound 4] | 0.009 | 28.4 | 
22 | Cc1c(C(=O)O)n2c3ccc(Cl)c(c13)-c1c(nn(C)c1C)C(CCCO)OCc1cc(n(C)n1)CCc1cc(c3ccc(F)cc3c1)OCCC2 (single isomer, unassigned) [Compound 11] | 0.01 | 303 | 
23 | Cc1nn2c3c1-c1c(Cl)ccc4c1c(C)c(C(=O)O)n4CCCOc1cc(cc4cc(F)ccc14)CCc1cc(nn1C)CCC3OCC2 (centres unmarked) [Compound 30] |  | 52.8 | 
24 | Cc1nn2c3c1-c1c(Cl)ccc4c1c(C)c(C(=O)O)n4CCCOc1cc(cc4cc(F)ccc14)CCc1cc(nn1C)CCC3OCC2 (centres unmarked) [Compound 28] |  | > 30 | 
